Earlier results as cited in patent US20010022980A1, “Dietary supplement for individuals under stress” (Beth Israel Deaconess Medical Center, priority 1998, published 2001).

How the values were obtained:
tetanus toxoid = conditions: given during 14 days of training (glutamine 14 g)
[1] = 20 g per day for five days, 3 g daily for remaining 9 weeks; weight training
[2] = soldiers, 24 g in a sports bar
inflammation = conditions: rats
explicit memory = conditions: college students; 25 grams; 90 minutes after ingestion
[3] = 2 to 5 g per day
PCr = conditions: athletes; about 20 g during exercise
[4] = males and females; 20 g per day

NCC(=O)O [glycine, reference compound]
percentage of soldiers who had an induration >10 mm in response to tetanus toxoid (tetanus toxoid): 30%

NC(=O)CC[C@H](N)C(=O)O [glutamine]
percentage of soldiers who had an induration >10 mm in response to tetanus toxoid (tetanus toxoid): 50%

CN(CC(=O)O)C(=N)N.O [creatine monohydrate]
increase in fat free mass [1]: 4.4%
increase in intracellular water [1]: 3.2%
increase in total body water [1]: 5%
strength (bench press and squat exercises) [1]: significant increase
increase in body mass [2]: 1.5 kg
increase in total repetitions over five sets of bench presses [2]: 14.4%
reduction of time to complete an obstacle course ([2]; not significant): 7.6 ± 8.2 s
decrease in body fat ([2]; p <0.05): 0.6%

CCCCC/C=C\C/C=C\C/C=C\CCCCC(=O)O [GLA, γ-linoleic acid]
cellular phase of inflammation (polymorphonuclear leukocyte accumulation, phagocytosis, and lysosomal enzyme activity) (inflammation): suppressed

phosphatidylcholine
explicit memory (serial learning task) (explicit memory): improve explicit memory

CN(CC(=O)O)C(=N)N [creatine]
muscle creatine content [3]: increases
resynthesis of PCr after exercise (PCr): rapid resynthesis
blood pressure [4]: no change
body fat [4]: no change
lean body mass determined by DEXA [4]: increased
plasma creatine kinase [4]: no change
